Where two headings read alike, the source gives them in different places.
Columns and labels:
Type in all cases: cell-based
[1] = test system: HCV replicons containing NS5A genes from genotype 2b HCV infected humans; test: Transient replicon (shuttle vector) assay with NS5A genes from patient isolates, genotype 2b
[2] = test system: HCV replicons containing NS5A genes from genotype 6a HCV infected humans; test: Transient replicon (shuttle vector) assay with NS5A genes from patient isolates, genotype 6a
[3] = test system: HCV replicon containing NS5A from genotype 5a; test: Stable 1b-Con1 replicon cell line containing a portion of NS5A from genotype 5a (luciferase); settings: Hepatitis C virus
Protocol: (§1) This replicon construct contains a NotI restriction site upstream of NS5A, and a BlpI restriction site just after NS5A amino acid 214. Viral RNA from infected subjects was isolated according to Middleton et al., J VIROL METHODS 145:137-145 (2007) and Tripathi et al., ANTIVIRAL RES 73:40-49 (2007). RT-PCR was conducted on the RNA to generate a DNA fragment encoding NS5A amino acids 1-214. The PCR fragment incorporated NotI and BlpI compatible ends, and this fragment was ligated into a plasmid containing the 1b-Con1 replicon. Stable cell lines were generated by introducing these constructs into Huh-7 cells.
(§2) Briefly, replicon-containing cells were seeded into 96-well plates at a density of 5000 cells per well in 100 μl DMEM containing 5% FBS. The following day, compounds were diluted in dimethyl sulfoxide (DMSO) to generate a 200× stock in a series of eight half-log dilutions. The dilution series was then further diluted 100-fold in the medium containing 5% FBS. […] Luciferin solution (50 μl, Promega) was added to each well, and luciferase activity was measured with a Victor II luminometer (Perkin-Elmer). The percent inhibition of HCV RNA replication was calculated for each compound concentration and the EC50 value was calculated using nonlinear regression curve fitting to the 4-parameter logistic equation and GraphPad Prism 4 software (Halfman, METHODS ENZYMOL 74 Pt C: 481-497 (1981)). […]

[4] = test system: HCV replicons containing NS5A genes from genotype 3a HCV infected humans; test: Transient replicon (shuttle vector) assay with NS5A genes from patient isolates, genotype 3a
[5] = test system: HCV replicon containing NS5A from genotype 2b; test: Stable 1b-Con1 replicon cell line containing a portion of NS5A from genotype 2b (luciferase); settings: Hepatitis C virus
Protocol: as §1, §2

[6] = test system: HCV replicon containing NS5A from genotype 6a; test: Stable 1b-Con1 replicon cell line containing a portion of NS5A from genotype 6a (luciferase); settings: Hepatitis C virus
Protocol: as §1, §2

[7] = test system: HCV replicons containing NS5A genes from genotype 2a HCV infected humans; test: Transient replicon (shuttle vector) assay with NS5A genes from patient isolates, genotype 2a; settings: Hepatitis C virus
[8] = test system: HCV replicon containing NS5A from genotype 3a; test: Stable 1b-Con1 replicon cell line containing a portion of NS5A from genotype 3a (luciferase); settings: Hepatitis C virus
Protocol: as §1, §2

[9] = test system: HCV genotype 1a-H77 replicon; test: HCV stable subgenomic replicon cell culture assay (luciferase reporter), genotype 1a-H77; settings: Hepatitis C virus
[10] = test system: HCV genotype 1b-Con1 replicon; test: HCV stable subgenomic replicon cell culture assay (luciferase reporter), genotype 1b-Con1; settings: Hepatitis C virus
[11] = test system: HCV replicon containing NS5A from genotype 2a; test: Stable 1b-Con1 replicon cell line containing a portion of NS5A from genotype 2a (luciferase); settings: Hepatitis C virus
Protocol: as §1, §2

[12] = test system: HCV replicon containing NS5A from genotype 4a; test: Stable 1b-Con1 replicon cell line containing a portion of NS5A from genotype 4a (luciferase); settings: Hepatitis C virus
Protocol: as §1, §2

[13] = test system: HCV replicons containing NS5A genes from genotype 1b HCV infected humans; test: Transient replicon (shuttle vector) assay with NS5A genes from patient isolates, genotype 1b
[14] = read-out: Mean EC50, pM, ± Std. Dev.

What does the source list for `COC(=O)N[C@H](C(=O)N1CCC[C@H]1C(=O)Nc1ccc([C@@H]2CC[C@@H](c3ccc(NC(=O)[C@@H]4CCCN4C(=O)[C@@H](NC(=O)OC)C(C)C)cc3)N2c2ccc(C(C)(C)C)cc2)cc1)C(C)C` [Compound 1, dimethyl (2S,2′S)-1,1′-((2S,2′S)-2,2′-(4,4′-((2S,5 S)-1-(4-tert-butylphenyl)pyrrolidine-2,5-diyl)bis(4,1-phenylene))bis(azanediyl)bis(oxomethylene)bis(pyrrolidine-2,1-diyl))bis(3-methyl-1-oxobutane-2,1-diyl)dicarbamate]?
EC50 ([1]; Hepatitis C virus, Genotype 2b, isolate 48477): 1.11 pM; EC50 ([1]; Hepatitis C virus, Genotype 2b, isolate 51629, variant F28): 44.7 pM; EC50 ([1]; Hepatitis C virus, Genotype 2b, isolate 9992612): 5.15 pM; loss in activity ([1]; genotype 2b sample containing L28F variant): 75 fold; EC50 ([1]; read-out: EC50, pM, Mean ± Std. Dev., mean of 13/14 genotype 2b samples (without the L28F sample)): 1.08 ± 1.23 pM; EC50 ([2]; Hepatitis C virus, isolate 1110880, variant L28): 42 pM; EC50 ([2]; Hepatitis C virus, isolate 1110880-L28F, variant F28 (L28F mutation introduced)): 68 pM; EC50 ([2]; isolate 1110880, variant L28): 42.3 pM; EC50 ([2]; isolate 1110880-L28F, variant F28 (L28F mutation introduced)): 68 pM; EC50 ([3]; read-out: EC50 value): < 20 pM; EC50 [3, 14]: 4.3 ± 0.9 pM; EC50 ([4]; Genotype 3a, isolate 55500, variant K30 (A30K)): 55.2 pM; EC50 ([4]; Hepatitis C virus, Genotype 3a, isolate 7153-55): 2.32 pM; EC50 ([4]; Hepatitis C virus, Genotype 3a, isolate 9110-47): 3.87 pM; EC50 ([4]; Hepatitis C virus, Genotype 3a, isolate 48557): 11.4 pM; EC50 ([4]; Hepatitis C virus, Genotype 3a, isolate 55500, variant K30 (A30K)): 55 pM; EC50 ([4]; Hepatitis C virus, Genotype 3a, isolate 55510): 3.03 pM; EC50 ([4]; Hepatitis C virus, Genotype 3a, isolate 55534): 3.28 pM; EC50 ([4]; Hepatitis C virus, Genotype 3a, isolate 57223): 4.14 pM; EC50 ([4]; Hepatitis C virus, Genotype 3a, isolate 57314): 2.02 pM; EC50 ([4]; Hepatitis C virus, Genotype 3a, isolate 85501): 3.05 pM; EC50 ([4]; Hepatitis C virus, Genotype 3a, isolate 89241, variant V28): 2.71 pM; EC50 ([4]; Hepatitis C virus, Genotype 3a, isolate 95079): 15.2 pM; EC50 ([4]; Hepatitis C virus, Genotype 3a, isolate 9810069): 2.52 pM; EC50 ([4]; Hepatitis C virus, read-out: EC50, pM, Mean ± Std. Dev., mean of 12 of the 13 genotype 3a samples (without the A30K sample)): 4.5 pM; EC50 ([4]; read-out: EC50, pM, Mean ± Std. Dev., mean of 12 of the 13 genotype 3a samples (without the A30K sample)): 4.54 ± 4.26 pM; EC50 ([5]; read-out: EC50 value): < 20 pM; EC50 [5, 14]: 4.3 ± 1.2 pM; EC50 ([6]; read-out: EC50 value): < 500 pM; EC50 [6, 14]: 415 ± 97 pM; EC50 ([7]; Genotype 2a, isolate 34021): 5.07 pM; EC50 ([7]; Genotype 2a, isolate 84836): 11.3 pM; EC50 ([7]; Genotype 2a, isolate 88935): 2.56 pM; EC50 ([7]; Genotype 2a, isolate 88939): 2.03 pM; EC50 ([7]; Genotype 2a, isolate 91106): 3.39 pM; EC50 ([7]; Genotype 2a, isolate 10124423): 3.46 pM; EC50 ([7]; Genotype 2a, isolate U01): 4.79 pM; EC50 ([7]; read-out: EC50, pM, Mean ± Std. Dev., mean of the genotype 2a isolates (methionine at NS5A position 31)): 3.8 pM; EC50 ([8]; read-out: EC50 value): < 20 pM; EC50 [8, 14]: 19.3 ± 5.8 pM; EC50 ([9]; Genotype 1a-H77 replicon, 0% human plasma (5% fetal bovine serum), read-out: Mean EC50, pM, ± Std. Dev.): 14.1 ± 6.8 pM; EC50 ([9]; against HCV genotype 1a (summary statement), read-out: EC50 value): < 20 pM; EC50 ([9]; genotype 1a and 1b replicons together, in the presence of 5% FBS, read-out: mean EC50 values): 5 to 14 pM; EC50 ([10]; Genotype 1b-Con1 replicon, 0% human plasma (5% fetal bovine serum), read-out: Mean EC50, pM, ± Std. Dev.): 5 ± 1.9 pM; EC50 ([10]; against HCV genotype 1b (summary statement), read-out: EC50 value): < 20 pM; EC50 ([11]; read-out: EC50 value): < 20 pM; EC50 [11, 14]: 12.4 ± 2.7 pM; EC50 ([12]; read-out: EC50 value): < 20 pM; EC50 [12, 14]: 1.71 ± 0.88 pM; EC50 ([13]; Hepatitis C virus, Genotype 1b, isolate 1393): 1.15 pM; EC50 ([13]; Hepatitis C virus, Genotype 1b, isolate 4377): 1.53 pM; EC50 ([13]; Hepatitis C virus, Genotype 1b, isolate 4386): 1.21 pM; EC50 ([13]; Hepatitis C virus, Genotype 1b, isolate 4410): 1.2 pM; EC50 ([13]; Hepatitis C virus, Genotype 1b, isolate 9432): 1.12 pM; EC50 ([13]; Hepatitis C virus, read-out: EC50, pM, Mean ± Std. Dev, mean of the 11 genotype 1b clinical isolates): 1 pM; EC50 ([13]; read-out: EC50, pM, Mean ± Std. Dev, mean of the 11 genotype 1b clinical isolates): 1.03 ± 0.23 pM
